Here are results for six compounds from US12002595B2, “Separation of metal ions by liquid-liquid extraction” (priority 2016, dated 2024).

Experiment [1] in a line: Stability constant (log β) of ligand-metal complexes. Type of experiment: binding. The conditions noted are these: 25.0° C., 0.1 M KCl. The procedure:
Solution Thermodynamics. All titrant solutions were degassed by boiling for 1 h while being purged under Ar. Carbonate-free 0.1 M KOH was prepared from concentrate (J. T Baker Dilut-It) and was standardized by titrating against 0.1 M potassium hydrogen phthalate (99.95%, Sigma Aldrich). Solutions of 0.1 M HCl were similarly prepared and were standardized by titrating against TRIS (99.9%, J. T. Baker). The glass electrode (Metrohm—Micro Combi—response to [H+]) used for the pH measurements was calibrated at 25.0° C. and at an ionic strength of 0.1 M (KCl) before each potentiometric or spectrophotometric titration. The calibration data were analyzed using the program GLEE (Gans & O'Sullivan, Talanta, 2000, 51 (1): 33-37) to refine for the E° and slope. All thermodynamic measurements were conducted at 25.0° C., in 0.1 M KCl supporting electrolyte under positive Ar gas pressure. The automated titration system was controlled by an 867 pH Module (Metrohm). Two-milliliter Dosino 800 burets (Metrohm) dosed the titrant (0.1 M KOH or 0.1 M HCl) into the thermostated titration vessel (5-90 mL). UV-visible spectra were acquired with an Ocean Optics USB4000-UV-vis spectrometer equipped with a TP-300 dip probe (Ocean Optics; path length of 10 mm), fiber optics and a DH-2000 light source (deuterium and halogen lamps). The fully automated titration system and the UV-vis spectrophotometer were coordinated by LBNL titration system, a computer program developed in house.
Incremental Spectrophotometric Titrations. This method was used to determine the protonation constants of 3,4,3-LI(CAM) as well as the stability constants of its complexes formed with Eu(III), Zr(IV) and ^232Th(IV). The experimental titration setup is similar to previously described systems (Sturzbecher-Hoehne, et al., Radiochimica Acta., 2013, 101 (6): 359-366). For the 3,4,3-LI(CAM) protonation (and Eu(III)-3,4,3-LI(CAM) complexes), titrations were performed with an initial concentration of 50 μM of 3,4,3-LI(CAM) (and 50 μM of Eu(III)) resulting in absorbance values included between 0 and 1.0 throughout the titration. Typically, 9 mL of a sample containing 3,4,3-LI(CAM) (and Eu(III)) and the supporting electrolyte (KCl/HCl) were incrementally perturbed by addition of 0.025 mL of carbonate-free 0.1 M KOH followed by a time delay of 80 s. Buffering of the solution was ensured by the addition of 10 mM of HEPES, 10 mM of CHES and 10 mM of MES. Between 130 and 250 data points were collected per titration, each data point including a pH measurement and a UV-Vis spectrum (250-450 nm) over the pH range 1.5 to 12.0. All spectra were corrected for dilution before data fitting. The entire procedure (electrode calibrate, titration and data treatment) was performed independently five times for the protonation constants and four times for the Eu(III)-3,4,3-LI(CAM) complexes. For the Zr(IV) and Th(IV) complexes, titrations were performed similarly but in the presence of DTPA to avoid the formation of metal hydroxides at low pH, before the uptake by 3,4,3-LI(CAM). For each metal, three titrations were performed independently in the presence of 1.1 to 40 equivalents of DTPA.
Data Treatment. […] All metal and chelator concentrations were held at estimated values determined from the volume of standardized stock solutions. All species formed with 3,4,3-LI(CAM) were considered to have significant absorbance to be observed in the UV-vis spectra and were therefore included in the refinement process. […]

For experiment [2] the following is noted: Eu(III), I=2.0 M at 25° C.; cited from earlier work.
Experiment [3] in a line: Extraction by HDEHP with 1 mM 343HOPO in 0.1 M HNO3 and 1.9 M NaNO3. The conditions noted are these: chelator in place of 343HOPO; acidic conditions. The procedure:
Aqueous phase: 1 mM 343HOPO in 0.1 M HNO3 and 1.9 M NaNO3. Organic phase: HDEHP in kerosene.
A log scale is used for clarity. See FIGS. 58A and 58B for results as a function of the phase ratio.
(§1) For Example 20—Example 24, pH measurements were performed with a glass electrode (Metrohm-Micro Combi-response to [H+]) calibrated at 25.0° C. using three NIST standards. Extraction samples were analyzed by liquid scintillation counting (LSC). The distribution coefficient, D(M), of a given metal, M, is defined in Eq. 1, where [M]organic and [M]aqueous are the respective total concentrations of M in the organic and aqueous layers, after extraction. Both concentrations are proportional to the volumetric activity (in Bq/L) determined by LSC. The separation factor, SFM1/M2, between two metals, M1 and M2, and extraction yield were calculated according to Eq. 2 and Eq. 3, respectively.
(§2) In a typical experiment, the solvent (extractant diluted in kerosene) was pre-conditioned by shaking one volume of solvent with three volumes of aqueous phase (typically HNO3) at room temperature for 1 h, thrice. For radioisotope extractions, at least 400 μL aqueous phase (typically containing HNO3, a chelator and a radioisotope) and solvent were placed in air-tight screw-capped plastic tubes, triply-contained, and shaken in a thermoshaker at 300 rpm, 25° C., for at least 30 min. Samples were then centrifuged for 5 min at 3000 rpm and phases separated before analysis. LSC analyses were performed on a Packard Tri-Carb B4430 instrument (Perkin Elmer) after mixing sample aliquots or sample dilution aliquots (10 to 200 μL) with 10 mL of scintillation cocktail (UltimaGold LLT). Samples were counted for at least 6 min and results were background subtracted. The analytical samples contained between 0 and 800,000 CPM. Mixtures of ^249Bk and ^249Cf were analyzed using α/β discrimination and energy windows were set to 0-50 keV for low-energy β particles of ^249Bk and 50-1000 keV for α particles of ^249Cf. ^243Am and ^225Ac samples were counted at secular equilibrium.

A short description of experiment [4]: Extraction by TODGA from HNO3 in the absence or presence of 1 mM 343HOPO. As to the method: Organic phase: 0.1 M TODGA in kerosene. Aqueous solvent: HNO3. T=25° C. O/A=1, one contact. Points with arrows are lower limits.
as §1, §2

A value given as a limit tells only on which side of the number the result lay.

For the compound `O=C(NCCCN(CCCCN(CCCNC(=O)c1cccc(O)c1O)C(=O)c1cccc(O)c1O)C(=O)c1cccc(O)c1O)c1cccc(O)c1O` [3,4,3-LI(CAM)], the “log β110” value in experiment [1] ([Eu-3,4,3-LI(CAM)]^5−) is given as 29.7; in experiment [1] ([Th-3,4,3-LI(CAM)]^4−) it was 47.7; in experiment [1] ([Zr-3,4,3-LI(CAM)]^4−), 57.3. In the case of `CC(O)C(=O)O` (stereo not drawn) [lactate], the “log β130” value in experiment [2] was 5.88. Consider `O=C(O)CN(CC(=O)O)[C@H]1CCCC[C@@H]1N(CC(=O)O)CC(=O)O` [CDTA, Trans-1,2-cyclohexanediamine-N,N,N′,N′-tetraacetic acid], for which the “separation between Bk and Cf” value in experiment [3] was “no separation at all”. Consider `CCCCCCCCN(CCCCCCCC)C(=O)COCC(=O)N(CCCCCCCC)CCCCCCCC` [TODGA, N,N,N′,N′-tetraoctyl diglycolamide, reference compound], for which, in experiment [4] (TODGA as extractant), the “distribution factor of uranyl (Du)” value is given as < 30. Besides, the “extraction yields of Gd^3+, Lu^3+, UO2^2+, Pu^4+, and Cf^3+ from HNO3” value in experiment [4] (if HNO3>1 M, no chelator, 0.1 M TODGA in kerosene) is > 99.5%. On to `O=C(O)CN(CCN(CC(=O)O)CC(=O)O)CC(=O)O` [EDTA, Ethylenediaminetetraacetic acid], for which, in experiment [3], the “separation between Bk and Cf” value is reported as “no separation at all”. As to `O=C(O)CN(CC(=O)O)CC(=O)O` [NTA, Nitrilotriacetic acid], the “separation between Bk and Cf” value in experiment [3] is “no separation at all”.
